ChEMBL document CHEMBL1124324, “Rational design of enzyme inhibitors: multisubstrate analogue inhibitors” (J Med Chem, 1989)

Target: Thymidylate synthase (Homo sapiens, UniProt P04818)
Test: Inhibition of compound against thymidylate synthetase

Chain of Thymidylate synthase (P04818 whole entry): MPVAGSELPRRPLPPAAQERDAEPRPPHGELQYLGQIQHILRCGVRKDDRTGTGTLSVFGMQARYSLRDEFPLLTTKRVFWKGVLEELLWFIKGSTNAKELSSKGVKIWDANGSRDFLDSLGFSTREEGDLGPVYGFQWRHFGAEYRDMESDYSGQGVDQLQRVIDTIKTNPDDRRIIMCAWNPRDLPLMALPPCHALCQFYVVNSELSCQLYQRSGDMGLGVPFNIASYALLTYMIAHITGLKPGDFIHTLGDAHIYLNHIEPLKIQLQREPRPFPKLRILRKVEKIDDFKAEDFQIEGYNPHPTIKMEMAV

Compound	Ki
CN(CC1CNc2nc(N)[nH]c(=O)c2N1Cc1c[nH]c(=O)[nH]c1=O)c1ccc(C(=O)NC(CCC(=O)O)C(=O)O)cc1 (stereo not drawn)	0.75 µM
NC1=NC(=O)C2C(=N1)CCC(CNc1ccc(C(=O)NC(CCC(=O)O)C(=O)O)cc1)N2Cc1cn([C@H]2C[C@H](O)[C@@H](COP(=O)(O)O)O2)c(=O)[nH]c1=O (stereo partly drawn)	0.03 µM
CN1CCN(Cc2cn([C@H]3C[C@H](O)[C@@H](COP(=O)(O)O)O3)c(=O)[nH]c2=O)c2ccccc21	0.06 µM
